What was measured:
[1] = Plasma concentration in fatty-liver cirrhosis patient plasma treated at 2 mg, po twice a day for 30 days measured after 15 hrs of last dose; format: ADME, organism-based; settings: human
[2] = Half life in fatty-liver cirrhosis patient treated at 2 mg, po twice a day for 30 days measured after 2 days of last dose; format: ADME, organism-based; settings: human, in vivo
Plasma = assay: Drug level in patient plasma; format: ADME, cell-free; settings: human
[3] = Half life in healthy human at 2 mg, po twice a day for 30 days measured after 2 days of last dose; format: ADME, organism-based; settings: in vivo
[4] = Plasma concentration in fatty-liver cirrhosis patient plasma treated at 2 mg, po twice a day for 30 days measured after 2 days of last dose; format: ADME, organism-based; settings: human
[5] = Plasma concentration in fatty-liver cirrhosis patient treated at 2 mg, po twice a day for 30 days measured after 11 days of last dose; format: ADME, organism-based; settings: human
Homo sapiens [6] = assay: Volume of distribution in healthy human at 2 mg, po twice a day for 30 days measured after 2 days of last dose; format: ADME, organism-based; settings: in vivo, 48 h
Homo sapiens [7] = organism: Homo sapiens; assay: Drug elimination in healthy human assessed as cytochrome-dependent hepatic metabolism-mediated biliary elimination; format: ADME, organism-based; settings: in vivo
Homo sapiens [8] = assay: Volume of distribution in fatty-liver cirrhosis patient treated at 2 mg, po twice a day for 30 days measured after 2 days of last dose; format: ADME, organism-based; settings: in vivo, 48 h
Homo sapiens [9] = organism: Homo sapiens; assay: Drug elimination in healthy human assessed as cytochrome-dependent hepatic metabolism-mediated kidney elimination; format: ADME, organism-based; settings: in vivo

## C[C@@H](c1ncncc1F)[C@](O)(Cn1cncn1)c1ccc(F)cc1F [VORICONAZOLE]
[1]
  concentration at 15 h: 13900 ng/mL
[2]
  half-life: 53.1 h
Plasma
  Drug uptake: > 2.05 µg/mL
[3]
  half-life: 4.7 h
[4]
  concentration at 48 h: 10000 ng/mL
[5]
  concentration at 264 h: 660 ng/mL
Homo sapiens [6]
  Vd: 2.04 L/kg
Homo sapiens [7]
  Activity: 20%
Homo sapiens [8]
  Vd: 0.13 L/kg
Homo sapiens [9]
  Activity: 80%
